From patent publication US10450570B2, “Compositions and methods for controlling vasculature” (YALE UNIVERSITY, priority 2016, dated 2019) come the findings set out here.

In test [1] the test system is orthotopic Panc02 tumors. Kind of test: Murine orthotopic pancreatic tumor model, peritumoral lymphatics (LYVE1). It is filed as in vivo, mouse. As to conditions: oral, 30 mg/kg/day, compared to vehicle controls. The procedure:
The murine pancreatic tumor cell line Panc02 was obtained from Prof. Wiedenmann (Charité University Hospital, Berlin). 1×10^6 tumor cells were injected subcapsularly in the head region of the pancreas of anaesthetized female C57Bl/6 mice (7-9 weeks old, Charles River, France) using a 30-gauge needle. At day 3 after tumor inoculation, tumor-bearing mice were treated daily with SSR (30 mg/kg/day) or vehicle (0.6% methylcellulose) via oral gavage. At day 9, primary tumors were removed, weighted, and tumor volumes (V) were calculated using the formula V=0.52×(a^2×b), where a represents the smallest tumour diameter and b represents the largest tumour diameter. The incidence of tumor invasion into adjacent organs, hemorrhagic ascites, and regional celiac and mesenteric lymph node metastases were recorded, and confirmed by immunohistochemistry on paraffin sections. Paraffin-embedded […] sections were prepared and used for immunohistochemistry using the following antibodies: anti-LYVE1 (Upstate-Cell Signaling Solutions, Bio-connect, Huissen, The Netherlands) and anti-VEGFR3 (eBiosciences). The lymph vessel area in the peritumoral area was analysed using the KS300 software (Zeiss).

Test [2] has as its system zebrafish. Kind of test: Lymphatic development in zebrafish embryos. The test is classed as in vivo. As to conditions: 0.25 μM, 53 hpf Tg (fli1a:EGFP) embryos, vs DMSO.
For test [3], the system named is HDLECs. Kind of test: Glycolytic flux measurement (5-3H-glucose). The test is classed as cell-based, human. The procedure:
(§1) Glycolysis was measured as previously described. Briefly, subconfluent HDLECs cultured in 12-well plates were incubated with 1 ml/well EBM2 medium (containing appropriate amount of serum and supplement) with 80 μCi/mmol 5-^3H-glucose (Perkin Elmer) for 2-3 hr. Then 0.8 ml/well medium was transferred into glass vials with hanging wells and filter papers soaked with H2O. After incubation in a cell culture incubator for at least 2 days to reach saturation, filter papers were taken out and the amount of evaporated ^3H2O was measured in a scintillation counter. Glucose oxidation, glutamine oxidation and fatty acid oxidation were measured essentially as reported. For measurement of glucose uptake, HDLECs were incubated with 2-[1-^14C]-deoxy-D-glucose (2.5 μCi/ml, Perkin Elmer) for 10 min. before PBS washing (at least 3 times to get rid of all radioactive medium) and then lysis with 500 μL 0.1 N NaOH. 400 μl NaOH cell lysate for each sample was transferred to scintillation vials containing scintillation liquid and measured.

For test [4], the system named is HDLECs. Kind of test: Glucose uptake measurement (2-[1-14C]-deoxy-D-glucose). It is filed as cell-based, human. The procedure:
as §1

In test [5] the test system is HDLECs. Kind of test: Mass spectrometry of glycolytic metabolites and ATP. It is filed as cell-based, human. The protocol: HDLECs were quenched by a rapid wash with ice-cold PBS and then collected in 150 μl of an ice-cold solution containing 20% methanol, 0.1% formic acid, 1 mM phenylalanine, 3 mM NaF and 100 μM EDTA. ^2H4-Taurine (10 μM, CDN Isotopes) was used as a loading control. All the samples were lyophilized and resuspended in 50 μL of water prior the LC-MS/MS analysis. Samples were injected onto a Cogent Diamond Hydride™ column (2.2 μm particle size, 2.1 mm×10 cm) at a flow rate of 0.5 mL/min. Glycolytic intermediates were eluted isocratically with a 95% aqueous/5% organic solvent mixture. The aqueous solution contained 15 mM ammonium formate. The organic solution contained 60% acetonitrile, 35% isopropyl alcohol and 15 mM ammonium formate. Samples were ionized by electrospray into an ABSCIEX 5500 QTRAP equipped with a SelexION for differential mobility separation (DMS) and acquired using multiple reaction monitoring (MRM) in negative mode, as described previously. DMS-based separation of fructose-6-phosphate from glucose-6-phosphate, as well as the separation of ATP, ADP and AMP nucleotides, was achieved using no modifier. Isopropyl alcohol was used as modifier for the DMS-based separation of the remaining glycolytic intermediates. […]

The test system of test [6] is HK2 and other glycolytic enzymes in HDLECs. Kind of test: Western blot of glycolytic enzyme expression in HDLECs. To be noted: protein. It is filed as cell-based, human. The procedure: (§2) Human dermal lymphatic endothelial cells (HDLECs, HMVEC-dLyNeo-Der Lym Endo EGM-2MV) and Pooled human umbilical vein endothelial cells (HUVECs) were purchased from Lonza and cultured in EBM2 basal medium with EGM-2 MV BulletKit. Both cell types were tested negative for mycoplasma in Lonza. Culture medium was changed every the other day. Tissue culture plates were coated with 0.1% gelatin (Sigma) for 30 min at 37° C. and washed with Dulbecco's Phosphate-Buffered Saline (Life Technologies) before cell plating. For siRNA-mediated gene knockdown, FGFR1 siRNA (ON-TARGETplus human FGFR1 siRNA, Dharmacon; Hs_FGFR1_6, Qiagen), FGFR3 siRNA (Hs_FGFR3_6, Qiagen), HK2 siRNA (s6562 human HK2 siRNA, Life Technologies), c-Myc siRNA (ON-TARGETplus human Myc siRNA, Dharmacon), AllStar negative control siRNA (Qiagen), and ON-TARGETplus Non-targeting pool (Dharmacon) were transfected by lipofectamine RNAimax reagent (Life Technologies). Human FGF2 was provided by Kaken Pharmaceutical Co, Ltd (Japan) and ordered from Peprotech. Human VEGFC, VEGFD, IGF1, IGF2 and PDGFBB were purchased from Peprotech. To assay the effect of FGFR1 knockdown on glycolytic enzyme expression, HDLECs, transfected with control or FGFR1 siRNA 3 days in advance, were replated and collected for protein analysis 24 hr later when the cell confluency reached ˜80%. […] ImageJ was used for densitometry quantification of western blot bands.

Test [7] has as its system HUVECs. Kind of test: Glycolytic flux measurement in HUVECs. It is filed as cell-based, human.
Test [8] has as its system HK2 and other glycolytic enzymes in HUVECs. Kind of test: Western blot of glycolytic enzyme expression in HUVECs. It is filed as cell-based, human. The procedure:
as §2
Background: A western blot detects proteins with antibodies after separation by electrophoresis.

Test [9] deals with HDLECs. Kind of test: Three-dimensional bead sprouting assay. The test is classed as cell-based, human. To be noted: control siRNA HDLEC-coated beads. The procedure:
HDLECs were trypsinized and mixed with collagen-coated Cytodex® microcarrier beads (Sigma) in a ratio of 2500 beads to 1×10^6 cells in warm EGM-2 medium in a 15 ml falcon tube. The mixture was incubated at 37° C. for 4 hr., with shaking every 20 min. to ensure even coating of the beads. After 4 hr., the coated beads were transferred to a 6-well plate in 2 ml of EGM-2 medium per well and incubated at 37° C. overnight. The next day, coated beads were embedded into a fibrinogen gel. For each well of a 24-well plate, 300 μl of 3 mg/mL fibrinogen in PBS was used, along with 100 μg/ml of aprotinin (Sigma) and 1.5 unit/ml of thrombin (Sigma). Approximately 250 coated beads were embedded in each well. The plate was then incubated at 37° C. for one hr. to generate a clot. After the gel solidified, human lung fibroblasts in EGM-2 medium were seeded on top at a concentration of 20,000 cells/well. The medium was changed every other day (full EGM-2 medium with 200 ng/mL of FGF2), and the plates were imaged on day 6 using a spinning disk confocal microscope (Perkin Elmer). ImageJ was used to measure the sprout length for the data analysis.

The test system of test [10] is mouse cornea. Kind of test: Corneal lymphangiogenesis model. It is filed as in vivo. As to conditions: FGF2-containing pellets implanted, 1 week. The protocol: Slow-releasing pellets containing FGF2 were made as previously described (Tang, Z. et al. JoVE, (2011)). Surgery to implant the pellets into the mouse cornea was performed as reported (Cao, R. et al. Nature protocols 6, 817-826, (2011)). Adult Prox1-CreER^T2(KI); HK2^flox/flox and control mice were i.p. injected with tamoxifen (150 μg/g body weight) every the other day (seven injections total) before the cornea surgery. 1 week after the pellet implantation, eyeballs were harvested for cornea dissection and immunostaining with LYVE1 (Angiobio, #11-034) and PECAM1 (BD Pharmigen, #553370) antibodies and then used for imaging (spinning disk confocal microscopy) and quantification analysis (ImageJ).

Test [11] relates to Myc expression in HDLECs. Kind of test: Western blot of Myc expression in HDLECs. The test is classed as cell-based, human. The procedure: as §2
Test [12] has as its system Myc binding to the HK2 E-boxes in HDLECs. Kind of test: ChIP-qPCR of Myc binding to the HK2 gene. It is filed as cell-based, human. The protocol:
ChIP assays were performed using SimpleChIP® Plus Enzymatic Chromatin IP Kit (Cell Signaling) according to manufacturer's protocol with some minor modifications. Basically cells cultured on 20-cm dishes were fixed for 10 min by adding 37% formaldehyde solution to the culture medium to a final concentration of 1%. Fixation was quenched with glycine for 5 min at room temperature. Cells were washed twice with ice-cold PBS, scraped into 2 ml PBS, and centrifuged at 5,000 rpm for 10 min. The cell pellets from two 20-cm dishes were combined and lysed in 1 ml lysis buffer. The lysate was then centrifuged at 5,000 rpm for 5 min at 4° C. and the pellet was resuspended in 100 μl nuclease digestion buffer. The DNA was digested with 0.5 μl of Micrococcal Nuclease for 20 min at 37° C. to a length of approximately 150-900 bp (checked by agarose gel electrophoresis). Lysates were centrifuged and the pellet was resuspended in 500 μl ChIP buffer and sonicated for 3×30 s at power level 2 and 40% constancy. […] The amount of precipitated DNA from each sample was quantified by qPCR using primers flanking the Myc binding element in the HK2 gene. The reading was normalized to that of DNA purified from the previously saved cross-linked chromatin (2% input). The reading by DNA from IP using Myc antibody against that from IgG IP indicated the antibody efficiency for ChIP assay. […]

Test [13] relates to Myc expression in HUVECs. Kind of test: Western blot of Myc expression in HUVECs. It is filed as cell-based, human. The procedure:
as §2

For the compound `COc1c(C)c(C(=O)c2ccc(N)c(C(=O)[O-])c2)n2ccccc12.[Na+]` [SSR128129E], the “lymphatic vasculature in the peri-tumoral area (LYVE1)” value in [1] is “significant reduction of the lymphatic vasculature in the peri-tumoral area”.

For the compound `Cc1c[nH]c(/C=C2\C(=O)Nc3ccccc32)c1CCC(=O)O` [SU5402], the “lymphatic development in zebrafish (parachordal line length)” value in test [2] is “impairs lymphatic development in zebrafish”.

For “FGF2: Human FGF2 provided by Kaken Pharmaceutical and ordered from Peprotech”, the glycolytic flux entry in test [3] was “doubled”. The glucose uptake entry in test [4] is “significantly increased glucose uptake”. Further, in [5], the ATP production entry is reported as “increased”; the “steady-state levels of glycolytic metabolites and lactate” value is listed as “all increased by FGF2 stimulation”. Besides, the “glycolytic enzyme (HK2) expression” value in test [6] is “robust increase in HK2 expression, with minimal changes of other enzymes' expression”. In test [7], the “glycolysis in HUVECs” value is “enhanced glycolysis”. Also, the “HK2 protein expression in HUVECs” value in test [8] is “selectively induced HK2 expression albeit to a lesser extent than in LECs”. For the same compound, the sprouting response entry in [9] is on record as “induced a strong sprouting response”. Also, in [10], the “lymphangiogenesis in the mouse cornea” value is “induced robust stimulation of lymphangiogenesis”. The Myc protein expression result in test [11] is recorded as “increased Myc protein expression”. For the same compound, the “amount of Myc binding to the HK2 E-boxes” value in test [12] is “increased by FGF2 treatment”. The “Myc expression in HUVECs” value in test [13] is given as “increased Myc expression”.

Regarding “IGF1: insulin-like growth factor 1, purchased from Peprotech”, the glycolytic flux entry in [3] was “no effect”.

In the case of “IGF2: insulin-like growth factor 2, purchased from Peprotech”, the glycolytic flux entry in test [3] is listed as “reduced flux”.
